According to patent US20200046788A1, “COMPOSITIONS AND METHODS FOR TREATMENT OF INTESTINAL INFLAMMATION AND COLON CANCER” (University of Louisville Research Foundation, Inc., priority 2016, published 2020):

Key:
[1] = tested on: DSS-induced colitis; assay: Transfer of BMDCs treated with LN SFN knock-out / knock-in nanoparticles into mice with DSS colitis; type: in vivo, mouse
Procedure: FIGS. 7A-7F include graphs and images showing that BDN SFN protects colitis by inducing regulatory DCs, including graphs and images showing: (FIG. 7A) the lipids extracted from BDN-derived liposome-like nanoparticles (LN) or LN with SFN knock-out (LN-SFN^−/− or knock-in (LN-SFN^+/+) and a standard SFN were separated on a thin-layer chromatography plate and developed, where a representative image was scanned using an Odyssey Scanner; (FIGS. 7B-7D) BMDCs that were treated with CBA (20 μg/ml) for 24-48 hr in the presence of DMSO, LN-SFN^−/− or LN-SFN^+/+ and were injected i.v. […] (FIG. 7E) cytokine analysis by qRT-PCR of RNA recovered from colonic LPL1; and (FIG. 7F) the cell number of CD11b^+ DCs isolated from colon and MLN in DSS-induced colitis after adoptive transfer, where data are mean±SEM. (n=5), *P<0.05, **P<0.01 (Student's t-test). Lipid extraction, TLC and lipidomic analysis. Total lipid extraction from BDNs was performed according to the method of Bligh and Dyer, and the lipids were dissolved in chloroform or methanol for analysis. […] Developed plates were initially air-dried, then sprayed with CuSO4-phosphoric acid reagent (10% CuSO4 in 8% phosphoric acid), and followed by charring at 100° C. for 10 min. […] Total lipids were determined using the phosphate assay as described previously. […] Colitis was assessed as described above.

[2] = tested on: human monocyte-derived DCs; conditions: LPS 100 ng/ml, western blot
Procedure: Western blot analysis. […] Images have been cropped for presentation.
(§1) Generation of mouse and human DCs. For the generation of mouse DCs, bone marrow cells were harvested from the femurs and tibias of mice and cultured in 6-well tissue culture plates (Costar) for 8 days in complete medium supplemented with 20 ng/ml GM-CSF and 10 ng/ml IL-4. BDNs, BDN-derived lipid or SFN was added to some wells on day 0. To obtain human DCs, peripheral blood mononuclear cells were isolated from healthy donors by Ficoll-Hypaque Plus (GE Healthcare). These studies were approved by the Institutional Review Board of University of Louisville. Monocytes were purified by a discontinuous Percoll gradient (GE Healthcare) and positive selection with the Monocyte Isolation kit (purity, >90%; Miltenyi Biotec). Monocytes were cultured in RPMI-1640 complete medium supplemented with 10% (vol/vol) heat-inactivated PCS, gentamicin ([…]), 2-mercaptoethanol (50 μM) and L-glutamine (2 mM; all from Gibco) containing IL-4 (5 ng/ml; Sigma) and recombinant human GM-CSF (35 ng/ml; Sigma) with or without SFN (10 μM). In some experiments, DCs were exposed for 24 h to LPS (100 ng/ml) with or without SFN.

[3] = tested on: BMDCs
Procedure: as §1

[4] = tested on: CD4+ T cells
Procedure: as §1

[5] = tested on: MC38 colon cancer cells; assay: MC38 colon cancer cells treated with SFN or BDN-derived lipids (RT-PCR); type: cell-based, mouse
Procedure: RNA extraction and PCR. Total RNA was isolated from the small intestine and colon or tumor tissue using the Qiagen RNeasy RNA isolation Kit and was used to synthesize cDNA. RNA (1 μg) was reverse-transcribed with Superscript III and random primers (Invitrogen). For quantitation of genes of interest, cDNA samples were amplified in a CFX96 Realtime System (Bio-Rad Laboratories, Hercules, Calif., USA) using SYBR Green Master Mix (Invitrogen) and specific primers (Table 2) according to the manufacturer's instructions. Fold changes in mRNA expression between treatments and controls were determined by the […] as described. Results for each sample were normalized to the concentration of GAPDH mRNA measured in the same samples and expressed as fold increase over baseline levels, which are set at a value of 1. Differences between groups were determined using a two-sided Student's t-test and one-way ANOVA. Error bars on plots represent±SEM, unless otherwise noted. All primers were purchased from Eurofins MWG Operon.

[6] = tested on: intestinal tumorigenesis
Procedure: Polyamine pools and Enzyme analyses. Tumor tissue was removed from intestine and was snap-frozen and stored at −70° C. Following removal of tumors, the normal small intestinal and colonic mucosa was scraped with a glass slide and snap-frozen. Frozen tissues were crushed into a fine powder. Specimens were homogenized in 1.2N perchloric acid and centrifuged to obtain the soluble supernatant extracts for polyamine analyses. Intracellular polyamine pools and acetylated polyamine pools were extracted with 1.2N perchloric acid, dansylated with dansyl chloride. The derivatized polyamines were separated on and analyzed using high-performance liquid chromatography on 150×4.6 mm ZORBAX SB-C18 column (Agilent) using methods described elsewhere. Polyamines were also quantitated by ELISA kit (Mybiosource, # MBS094198). For analysis of the enzyme activity, intestinal mucosal samples (4 mm^2) were immediately transferred to vials containing 0.5 ml of an ice-cold buffer [50 mM Tris-HCl (pH 7.5), 0.1 mM EDTA, and 0.1 mM pyridoxal phosphate)] and then homogenized and centrifuged. SSAT and ODC activities were determined by using C-labeled substrates and scintillation counting of end products produced as described previously (31) (or Cancer research SSAT mice).

[7] = SFN 10 μM + GM-CSF vs GM-CSF alone

C[S+]([O-])CCCCN=C=S (stereo not drawn) [SFN, Sulforaphane]
numbers of transferred BMDC reaching the MLNs and colon [1]: lower numbers
phosphorylation of AMPK at Thr172 [2]: increased phosphorylation of AMPK at Thr172
phosphorylation of S6 and p70S6K [2]: decreased S6 phosphorylation
IL-10 production (ELISA) ([3]; LPS 18 h, vs LPS alone): more IL-10
IL-12, IL-23 production (ELISA) ([3]; LPS 18 h, vs LPS alone): produced less IL-12, IL-23
expression of CD11c [3, 7]: lower expression of CD11c
expression of PD-L1 [3, 7]: higher expression of PD-L1
CD25 on CD4+ T cells induced by DC^SFN ([4]; vs DC^DMSO): lower expression
PD-1 on CD4+ T cells induced by DC^SFN ([4]; vs DC^DMSO): higher levels
IFN-γ production by CD4+ T cells primed with LPS-DC^SFN ([4]; vs LPS-treated DC^DMSO): less IFN-γ
IL-10 production by CD4+ T cells primed with LPS-DC^SFN ([4]; vs LPS-treated DC^DMSO): more IL-10
IFN-γ production by CD4 T cells primed with DC^SFN ([4]; without LPS, vs DC^DMSO): negligible production of IFN-γ
expression of CSN8 and ODC ([5]; RT-PCR, vs DMSO): inhibited
expression of Nrf2 and SSAT1 ([5]; RT-PCR, vs DMSO): strongly activated
increase in SSAT1 caused by SFN ([5]; knockdown of both Nrf2 and CSN8): significantly inhibited the increase

NCCCCN [putrescine]
polyamines pool in the small intestine ([6]; 1% in drinking water): large increase
tumor number ([6]; APC^Min/+CSN8^fl/fl mice, vs control mice): an increase, but not statistically significant increase
epithelial cell proliferation (Ki-67) in the small intestines ([6]; APC^Min/+CSN8^ΔIEC): stimulated
polyp numbers in the small intestines ([6]; APC^Min/+CSN8^ΔIEC): strikingly increased
expression of nuclear Stat3, c-Myc and p21^(Cip1/WAF1) ([6]; APC^Min/+CSN8^ΔIEC mice, to that seen in APC^Min/+CSN8^fl/fl): restored the expression
polyp number in the colon ([6]; mouse, in vivo): no effect
